One assay deals with T1, mGlu5 receptor (Rattus norvegicus, UniProt P31424).
T1 construct: from tissue; host or cells: rat forebrain (cortex, striatum and hippocampus) membranes, male Sprague Dawley rats
Briefly: Radioligand binding assay at metabotropic glutamate receptor 5 in rat brain. As to conditions: [3H]MPEP, rat forebrain membranes; read-out: affinity (Ki) for mGlu5 receptor. As to the method:
Radioligand Binding Assay at Metabotropic Glutamate Receptor 5 in Rat Brain.
a) Membrane preparation: male Sprague Dawley rats (200-300 g, Charles River, Italy) were killed by cervical dislocation and the forebrain (cortex, striatum and hippocampus) was homogenized (2×20 sec) in 50 vols of cold 50 mM Tris buffer pH 7.4, using a Politron homogenizer (Kinematica). Homogenates were centrifuged at 48000×g for 15 min, resuspended in 50 vols of the same buffer, incubated at 37° C. for 15 min and centrifuged and resuspended two more times. The final pellets were frozen and stored at −80° C. until use.
b) Binding assay: pellets from rat forebrain were resuspended in 100 vols of 20 mM HEPES, 2 mM MgCl2, 2 mM CaCl2, pH 7.4. The membranes were incubated in a final volume of 1 ml for 60 min at 25° C. with 4 nM [^3H]MPEP in the absence or presence of competing drugs. Non-specific binding was determined in the presence of 10 μM MPEP (Spooren W. et al., Trends Pharmacol Sci. 22, 331-337, 2001). The incubation was stopped by the addition of cold Tris buffer pH 7.4 and rapid filtration through 0.5% polyethyleneimine pretreated Filtermat 1204-401 (Wallac) filters. The filters were then washed with cold buffer and the radioactivity retained on the filters was counted by liquid scintillation spectrometry. […]

The subject of the next assay is conscious rats. Kind of assay: Effect on cystometry in conscious rats (bladder volume capacity). As to conditions: for MED (Minimal Effective Dose that induces statistically significant increase of bladder volume capacity): oral administration; for increase of bladder volume capacity: orally. The assay is classed as in vivo, rat. As to the method: Male Sprague-Dawley rats [Crl: CD® (SD) IGS BR] of 300-400 g b.w. supplied by Charles River Italia were used. The animals were housed with free access to food and water and maintained on a forced 12-hour-light/12-hour-dark cycle at 22-24° C. of temperature, except during the experiment. To quantify urodynamic parameters in conscious rats, cystometrographic studies were performed according to the procedure previously reported (Guarneri et al., Pharmacol. Res. 24: 175, 1991).
Briefly, the rats were anaesthetised by intraperitoneal administration of 3 ml/kg of Equithensin solution (pentobarbital 30 mg/kg and chloral hydrate 125 mg/kg) and placed in a supine position. An approximately 10 mm long midline incision was made in the shaved and cleaned abdominal wall. The urinary bladder was gently freed from adhering tissues, emptied and then cannulated via an incision in the bladder body, using a polyethylene cannula (0.58 mm internal diameter, 0.96 mm external diameter) which was permanently sutured with silk thread. The cannula was exteriorised through a subcutaneous tunnel in the retroscapular area, where it was connected to a plastic adapter in order to avoid the risk of removal by the animal. For drug testing, the rats were utilised one day after implantation.
On the day of the experiment, the rats were placed in modified Bollman cages, i.e., restraining cages that were large enough to permit the rats to adopt a normal crouched posture, but narrow enough to prevent turning around. […] The intraluminal-pressure signal during infusion of saline into the bladder (cystometrogram) was continuously recorded on a polygraph (Rectigraph-8K San-ei with BM614/2 amplifier from Biomedica Mangoni) or stored on PC by data acquisition system (PowerLab, Chart 4 software, AD Instruments). From the cystometrogram, bladder volume capacity (BVC) was evaluated. […] Basal BVC value was evaluated as the mean of the values observed in the cystometrograms recorded in an initial period of 30-60 minutes. […] The bladder infusion restarted and changes in BVC were evaluated from the mean values obtained in the cystometrograms observed during 1, 2, and 3 hours after treatment. […]
Each experimental group was composed of 4-11 animals. All data were expressed as mean±standard error. The percent change of BVC versus the basal value, as well as Δ value (difference in ml) of BVC (BVC at time “x” minus basal value), were also evaluated for each rat/time. […]
Statistical analysis on BVC values, as well as on Δ values, was performed by S.A.S./STAT software, version 6.12. The difference between vehicle and active treatment effect was evaluated on Δ values of BVC, whereas the difference between the values at different times versus the basal values was evaluated on original BVC data.

T1 sequence (P31424 21-1203): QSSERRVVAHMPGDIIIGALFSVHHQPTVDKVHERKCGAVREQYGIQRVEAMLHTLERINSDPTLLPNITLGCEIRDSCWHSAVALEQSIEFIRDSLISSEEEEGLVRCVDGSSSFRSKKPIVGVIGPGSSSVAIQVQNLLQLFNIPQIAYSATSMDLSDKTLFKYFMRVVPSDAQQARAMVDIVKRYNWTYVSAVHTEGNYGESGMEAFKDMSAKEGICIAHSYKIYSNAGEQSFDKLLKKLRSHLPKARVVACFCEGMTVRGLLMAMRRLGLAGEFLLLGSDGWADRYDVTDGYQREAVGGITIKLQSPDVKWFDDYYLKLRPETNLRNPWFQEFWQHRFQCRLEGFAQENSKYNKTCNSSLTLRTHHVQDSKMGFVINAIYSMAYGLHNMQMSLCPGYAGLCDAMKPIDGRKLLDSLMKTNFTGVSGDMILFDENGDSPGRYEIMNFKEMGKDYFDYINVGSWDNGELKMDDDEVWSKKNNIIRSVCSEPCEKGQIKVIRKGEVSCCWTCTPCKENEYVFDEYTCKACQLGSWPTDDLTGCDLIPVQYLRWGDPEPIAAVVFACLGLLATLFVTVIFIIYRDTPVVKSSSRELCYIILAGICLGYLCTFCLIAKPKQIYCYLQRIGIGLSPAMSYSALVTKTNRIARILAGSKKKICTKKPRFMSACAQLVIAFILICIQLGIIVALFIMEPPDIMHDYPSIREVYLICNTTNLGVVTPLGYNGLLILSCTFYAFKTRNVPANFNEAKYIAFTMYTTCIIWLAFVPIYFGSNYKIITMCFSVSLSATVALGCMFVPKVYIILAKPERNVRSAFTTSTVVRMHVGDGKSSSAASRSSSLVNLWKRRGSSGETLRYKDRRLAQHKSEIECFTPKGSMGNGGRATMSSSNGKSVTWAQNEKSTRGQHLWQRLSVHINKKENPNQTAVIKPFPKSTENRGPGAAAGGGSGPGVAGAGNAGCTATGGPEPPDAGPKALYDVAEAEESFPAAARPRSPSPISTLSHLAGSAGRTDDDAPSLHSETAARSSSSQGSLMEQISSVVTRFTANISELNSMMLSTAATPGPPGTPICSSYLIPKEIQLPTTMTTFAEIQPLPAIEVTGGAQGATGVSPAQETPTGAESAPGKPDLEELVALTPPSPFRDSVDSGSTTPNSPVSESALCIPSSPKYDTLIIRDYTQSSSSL

Consider `Cc1ccc([N+](=O)[O-])c(N2CCC3(CC2)CC(C#Cc2cccc(Cl)c2)=NO3)n1` [Example 12, 3-[(3-Chlorophenyl)ethynyl]-8-(6-methyl-3-nitropyridin-2-yl)-1-oxa-2,8-diazaspiro[4.5]dec-2-ene], for which the Ki on mGlu5 receptor turned out to be 3.88 nM.
The same measure, in the same setting: as for `CON(C)C(=O)N1CCC2(CC(C#Cc3cccc(Cl)c3)=NO2)C1` (stereo not drawn) [Example 110, 7-[2-(3-Chlorophenyl)ethynyl]-N-methoxy-N-methyl-9-oxa-3,8-diazaspiro[4.4]non-7-ene-3-carboxamide], the figure is 1.49 nM.
Turning to `Cc1nc(C#Cc2cccnc2)cs1` [MTEP], the MED (Minimal Effective Dose that induces statistically significant increase of bladder volume capacity) in the assay with conscious rats is 3 mg/kg. Moreover, the “increase of bladder volume capacity” value in the assay on conscious rats (1 mg/kg) is recorded as “only a slight increase”; with conscious rats (3 mg/kg, statistically significant from the vehicle group after 3 hours from treatment) it was “sustained increase”.
Regarding `Clc1cccc(C#CC2=NOC3(CCC4(CCCO4)CC3)C2)c1` (single isomer, unassigned) [Example 78, 3-[(3-Chlorophenyl)ethynyl]-1,9-dioxa-2-azadispiro[4.2.4.2]tetradec-2-ene], the MED (Minimal Effective Dose that induces statistically significant increase of bladder volume capacity) in the assay on conscious rats was found to be 3 mg/kg.

Broadly, the Ki is the dissociation constant of the complex between target and ligand, obtained from inhibition or displacement.
